Reference: patent US20260085067A1, “CYCLIC SULFONAMIDE RIBONUCLEOTIDE REDUCTASE (RNR) INHIBITORS AND USES THEREOF” (Boundless Bio, Inc., priority 2022, published 2026)

Legend:
RNR (RNR1:RNR2 1:1) = target: T1, RNR (RNR1:RNR2 1:1) (Homo sapiens, UniProt P23921); assay: RNR enzyme activity, rapid-fire mass spectrometry (RF/MS) assay; format: biochemical; conditions: [RNR] 50 nM, 1:1 RNR1:RNR2; CDP 5 μM; ATP 1 mM; 37° C., 45 min; compounds screened up to 50 μM
T1 sequence (P23921 1-792): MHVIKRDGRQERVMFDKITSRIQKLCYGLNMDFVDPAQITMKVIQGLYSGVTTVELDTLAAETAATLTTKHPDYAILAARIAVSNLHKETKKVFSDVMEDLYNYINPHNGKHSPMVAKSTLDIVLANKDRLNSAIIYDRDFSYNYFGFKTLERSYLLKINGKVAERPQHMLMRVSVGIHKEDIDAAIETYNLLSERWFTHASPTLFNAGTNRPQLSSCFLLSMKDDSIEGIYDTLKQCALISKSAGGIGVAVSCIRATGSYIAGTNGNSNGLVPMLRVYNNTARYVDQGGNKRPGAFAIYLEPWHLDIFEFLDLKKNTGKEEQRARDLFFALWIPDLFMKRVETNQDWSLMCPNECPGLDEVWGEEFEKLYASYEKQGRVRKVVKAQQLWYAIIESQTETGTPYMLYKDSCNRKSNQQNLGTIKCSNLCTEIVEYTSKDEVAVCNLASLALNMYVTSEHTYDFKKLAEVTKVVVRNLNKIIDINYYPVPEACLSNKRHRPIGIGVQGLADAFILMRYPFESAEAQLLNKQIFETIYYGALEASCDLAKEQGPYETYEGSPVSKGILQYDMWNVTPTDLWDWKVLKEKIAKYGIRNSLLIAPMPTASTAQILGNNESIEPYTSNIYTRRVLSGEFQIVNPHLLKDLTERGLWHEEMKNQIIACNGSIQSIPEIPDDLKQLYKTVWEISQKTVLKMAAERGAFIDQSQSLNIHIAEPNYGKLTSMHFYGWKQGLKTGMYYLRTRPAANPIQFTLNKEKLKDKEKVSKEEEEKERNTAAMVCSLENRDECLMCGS
Summary of the method: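 Human RNR (50 nM final, RNR1:RNR2 1:1) pre-incubated 15 min at room temperature, then reacted 45 min at 37 °C with 5 μM CDP and 1 mM ATP, no NADPH. Reaction quenched with 6% HCOOH; product quantified by rapid-fire mass spectrometry.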

[1] = system: pCHK1 (S345) in Colo320 DM cells; assay: Alphalisa assay, detection of pCHK1 (S345) in Colo320 DM cells; format: cell-based, human; conditions: Homo sapiens, COLO 320DM, compound overnight (approximately 16 hours)
Summary of the method: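 Phospho-CHK1 (S345) read by AlphaLisa SureFire in lysates of human colorectal Colo320 DM cells. Compound treatment ran overnight (~16 h, 37 °C, DMSO <0.5%) on cells seeded the day before.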

Cc1ccc(F)c(C(C)[C@@H](c2n[nH]c(=O)o2)N2CCOc3c(ccc(Cl)c3C(C)(C)O)S2(=O)=O)c1C (stereo partly drawn) [Example 40, 5-((1S)-1-(7-chloro-6-(2-hydroxypropan-2-yl)-1,1-dioxido-3,4-dihydro-2H-benzo[b][1,4,5]oxathiazepin-2-yl)-2-(6-fluoro-2,3-dimethylphenyl)propyl)-1,3,4-oxadiazol-2 (3H)-one]
IC50 (RNR (RNR1:RNR2 1:1)): < 20 nM | IC50 [1]: 5000 to 10000 nM

Cc1ccc(F)c([C@@H](C)[C@@H](c2n[nH]c(=O)o2)N2CN(C3CCOCC3)c3cc(Cl)ccc3S2(=O)=O)c1C [Example 33, 5-((1S,2R)-1-(6-chloro-1,1-dioxido-4-(tetrahydro-2H-pyran-4-yl)-3,4-dihydro-2H-benzo[e][1,2,4]thiadiazin-2-yl)-2-(6-fluoro-2,3-dimethylphenyl)propyl)-1,3,4-oxadiazol-2 (3H)-one]
IC50 (RNR (RNR1:RNR2 1:1)): < 20 nM | IC50 [1]: ≤ 1000 nM

Cc1ccc(F)c([C@@H](C)[C@@H](c2n[nH]c(=O)o2)N2CCOc3c(ccc(Cl)c3CN(C)C)S2(=O)=O)c1C [Example 55, 5-((1S,2R)-1-(7-chloro-6-((dimethylamino)methyl)-1,1-dioxido-3,4-dihydro-2H-benzo[b][1,4,5]oxathiazepin-2-yl)-2-(6-fluoro-2,3-dimethylphenyl)propyl)-1,3,4-oxadiazol-2 (3H)-one]
IC50 (RNR (RNR1:RNR2 1:1)): < 20 nM | IC50 [1]: 1000 to 5000 nM

CC(=O)c1c(Cl)ccc2c1OCCN([C@H](c1n[nH]c(=O)o1)[C@H](C)c1c(F)ccc(C)c1C)S2(=O)=O [Example 25, 5-((1S,2R)-1-(6-acetyl-7-chloro-1,1-dioxido-3,4-dihydro-2H-benzo[b][1,4,5]oxathiazepin-2-yl)-2-(6-fluoro-2,3-dimethylphenyl)propyl)-1,3,4-oxadiazol-2 (3H)-one]
IC50 (RNR (RNR1:RNR2 1:1)): < 20 nM | IC50 [1]: 1000 to 5000 nM

COCc1cc(Cl)cc2c1S(=O)(=O)N([C@H](c1n[nH]c(=O)o1)[C@H](C)c1c(F)ccc(C)c1C)CN2C [Example 70, 5-((1S,2R)-1-(6-chloro-8-(methoxymethyl)-4-methyl-1,1-dioxido-3,4-dihydro-2H-benzo[e][1,2,4]thiadiazin-2-yl)-2-(6-fluoro-2,3-dimethylphenyl)propyl)-1,3,4-oxadiazol-2 (3H)-one]
IC50 (RNR (RNR1:RNR2 1:1)): 20 to 100 nM | IC50 [1]: 1000 to 5000 nM

COCCN1CN([C@H](c2n[nH]c(=O)o2)[C@H](C)c2c(F)ccc(C)c2C)S(=O)(=O)c2ccc(Cl)nc21 [Example 63, 5-((1S,2R)-1-(6-chloro-4-(2-methoxyethyl)-1,1-dioxido-3,4-dihydro-2H-pyrido[2,3-e][1,2,4]thiadiazin-2-yl)-2-(6-fluoro-2,3-dimethylphenyl)propyl)-1,3,4-oxadiazol-2 (3H)-one]
IC50 (RNR (RNR1:RNR2 1:1)): < 20 nM | IC50 [1]: ≤ 1000 nM

CC(=O)c1c(Cl)ccc2c1N(C)CN([C@H](c1n[nH]c(=O)o1)[C@H](C)c1c(F)ccc(C)c1C)S2(=O)=O [Example 64, 5-((1S,2R)-1-(5-acetyl-6-chloro-4-methyl-1,1-dioxido-3,4-dihydro-2H-benzo[e][1,2,4]thiadiazin-2-yl)-2-(6-fluoro-2,3-dimethylphenyl)propyl)-1,3,4-oxadiazol-2 (3H)-one]
IC50 (RNR (RNR1:RNR2 1:1)): 20 to 100 nM | IC50 [1]: ≤ 1000 nM

Cc1ccc(F)c([C@@H](C)[C@@H](c2n[nH]c(=O)o2)N2CCOc3c(ccc(Cl)c3C)S2(=O)=O)c1C [Example 36, 5-((1S,2R)-1-(7-chloro-6-methyl-1,1-dioxido-3,4-dihydro-2H-benzo[b][1,4,5]oxathiazepin-2-yl)-2-(6-fluoro-2,3-dimethylphenyl)propyl)-1,3,4-oxadiazol-2 (3H)-one]
IC50 (RNR (RNR1:RNR2 1:1)): < 20 nM | IC50 [1]: 1000 to 5000 nM

Cc1ccc(F)c([C@@H](C)[C@@H](c2n[nH]c(=O)o2)N2C3CCCN3c3cc(Cl)ccc3S2(=O)=O)c1C (stereo partly drawn) [Example 20, 5-((1S,2R)-1-(8-chloro-5,5-dioxido-1,2,3,3a-tetrahydro-4H-benzo[e]pyrrolo[2,1-c][1,2,4]thiadiazin-4-yl)-2-(6-fluoro-2,3-dimethylphenyl)propyl)-1,3,4-oxadiazol-2 (3H)-one]
IC50 (RNR (RNR1:RNR2 1:1)): < 20 nM | IC50 [1]: 1000 to 5000 nM

Cc1ccc(F)c([C@@H](C)[C@@H](c2n[nH]c(=O)o2)N2CN(C3CC3)c3cc(Cl)ccc3S2(=O)=O)c1C [Example 6, 5-((1S,2R)-1-(6-chloro-4-cyclopropyl-1,1-dioxido-3,4-dihydro-2H-benzo[e][1,2,4]thiadiazin-2-yl)-2-(6-fluoro-2,3-dimethylphenyl)propyl)-1,3,4-oxadiazol-2 (3H)-one]
IC50 (RNR (RNR1:RNR2 1:1)): 20 to 100 nM | IC50 [1]: ≤ 1000 nM

Cc1ccc(F)c([C@@H](C)[C@@H](c2n[nH]c(=O)o2)N2CN(C)c3cc(Cl)cc(CO)c3S2(=O)=O)c1C [Example 72, 5-((1S,2R)-1-(6-chloro-8-(hydroxymethyl)-4-methyl-1,1-dioxido-3,4-dihydro-2H-benzo[e][1,2,4]thiadiazin-2-yl)-2-(6-fluoro-2,3-dimethylphenyl)propyl)-1,3,4-oxadiazol-2 (3H)-one]
IC50 (RNR (RNR1:RNR2 1:1)): < 20 nM | IC50 [1]: ≤ 1000 nM

Cc1ccc(F)c([C@@H](C)[C@@H](c2n[nH]c(=O)o2)N2CN(CCN3CCCC3)c3cc(Cl)ccc3S2(=O)=O)c1C [Example 80, 5-((1S,2R)-1-(6-chloro-1,1-dioxido-4-(2-(pyrrolidin-1-yl)ethyl)-3,4-dihydro-2H-benzo[e][1,2,4]thiadiazin-2-yl)-2-(6-fluoro-2,3-dimethylphenyl)propyl)-1,3,4-oxadiazol-2 (3H)-one]
IC50 (RNR (RNR1:RNR2 1:1)): < 20 nM | IC50 [1]: ≤ 1000 nM

Cc1ccc(F)c([C@@H](C)[C@@H](c2n[nH]c(=O)o2)N2CN(C)c3cc(Cl)cc(C)c3S2(=O)=O)c1C [Example 26, 5-((1S,2R)-1-(6-chloro-4,8-dimethyl-1,1-dioxido-3,4-dihydro-2H-benzo[e][1,2,4]thiadiazin-2-yl)-2-(6-fluoro-2,3-dimethylphenyl)propyl)-1,3,4-oxadiazol-2 (3H)-one]
IC50 (RNR (RNR1:RNR2 1:1)): 20 to 100 nM | IC50 [1]: 10000 to 50000 nM

CC(=O)N1CN([C@H](c2n[nH]c(=O)o2)[C@H](C)c2c(F)ccc(C)c2C)S(=O)(=O)c2ccc(Cl)cc21 [Example 56, 5-((1S,2R)-1-(4-acetyl-6-chloro-1,1-dioxido-3,4-dihydro-2H-benzo[e][1,2,4]thiadiazin-2-yl)-2-(6-fluoro-2,3-dimethylphenyl)propyl)-1,3,4-oxadiazol-2 (3H)-one]
IC50 (RNR (RNR1:RNR2 1:1)): < 20 nM | IC50 [1]: 1000 to 5000 nM

Cc1ccc(F)c([C@@H](C)[C@@H](c2n[nH]c(=O)o2)N2CN(CCN3CCN(C)CC3)c3cc(Cl)ccc3S2(=O)=O)c1C [Example 105, 5-((1S,2R)-1-(6-chloro-4-(2-(4-methylpiperazin-1-yl)ethyl)-1,1-dioxido-3,4-dihydro-2H-benzo[e][1,2,4]thiadiazin-2-yl)-2-(6-fluoro-2,3-dimethylphenyl)propyl)-1,3,4-oxadiazol-2 (3H)-one]
IC50 (RNR (RNR1:RNR2 1:1)): < 20 nM | IC50 [1]: 1000 to 5000 nM

CC(=O)c1cc(Cl)cc2c1S(=O)(=O)N([C@H](c1n[nH]c(=O)o1)[C@H](C)c1c(F)ccc(C)c1C)CO2 [Example 102, 5-((1S,2R)-1-(8-acetyl-6-chloro-1,1-dioxidobenzo[e][1,4,3]oxathiazin-2 (3H)-yl)-2-(6-fluoro-2,3-dimethylphenyl)propyl)-1,3,4-oxadiazol-2 (3H)-one]
IC50 (RNR (RNR1:RNR2 1:1)): < 20 nM | IC50 [1]: ≤ 1000 nM

Cc1ccc(F)c([C@@H](C)[C@@H](c2n[nH]c(=O)o2)N2CN(C)c3cc(Cl)cc(C(C)O)c3S2(=O)=O)c1C (stereo partly drawn) [Example 68, 5-((1S,2R)-1-(6-chloro-8-(1-hydroxyethyl)-4-methyl-1,1-dioxido-3,4-dihydro-2H-benzo[e][1,2,4]thiadiazin-2-yl)-2-(6-fluoro-2,3-dimethylphenyl)propyl)-1,3,4-oxadiazol-2 (3H)-one]
IC50 (RNR (RNR1:RNR2 1:1)): 20 to 100 nM | IC50 [1]: ≤ 1000 nM

Cc1ccc(F)c([C@@H](C)[C@@H](c2n[nH]c(=O)o2)N2CN(C3CCOCC3)c3nc(Cl)ccc3S2(=O)=O)c1C [Example 87, 5-((1S,2R)-1-(6-chloro-1,1-dioxido-4-(tetrahydro-2H-pyran-4-yl)-3,4-dihydro-2H-pyrido[2,3-e][1,2,4]thiadiazin-2-yl)-2-(6-fluoro-2,3-dimethylphenyl)propyl)-1,3,4-oxadiazol-2 (3H)-one]
IC50 (RNR (RNR1:RNR2 1:1)): < 20 nM | IC50 [1]: ≤ 1000 nM

Cc1ccc(F)c([C@@H](C)[C@@H](c2n[nH]c(=O)o2)N2CN([C@H]3CCN(CC(F)(F)F)C3)c3cc(Cl)ccc3S2(=O)=O)c1C [Example 101, 5-((1S,2R)-1-(6-chloro-1,1-dioxido-4-((S)-1-(2,2,2-trifluoroethyl)pyrrolidin-3-yl)-3,4-dihydro-2H-benzo[e][1,2,4]thiadiazin-2-yl)-2-(6-fluoro-2,3-dimethylphenyl)propyl)-1,3,4-oxadiazol-2 (3H)-one]
IC50 (RNR (RNR1:RNR2 1:1)): 20 to 100 nM | IC50 [1]: 1000 to 5000 nM
